# Experimental data: PubChem BioAssay AID292 (DTP/NCI, 2004)
# Where “and” joins values, the source holds several entries; their conditions need not be identical. Identical values can stand only once. Inconclusive results and toxic doses are left out.
# Test system: B6C3F1 mice, ip Sarcoma M5076, median survival T/C
# Experiment: NCI In Vivo Anticancer Drug Screen. Data for tumor model Sarcoma M5076 (intraperitoneal) in B6C3F1 mice
# Conditions: endpoint: median survival time, higher = longer survival
# Description: The antitumor activity of compounds was measured in mice bearing transplantable tumors. Survival or tumor size were measured and the results are expressed as the measurement made in the treated group (T) divided by the measurement made in the vehicle treated control group (C). The tumor model used in this assay is Sarcoma M5076 (intraperitoneal) in B6C3F1 mice
# [1] = dose: 37.5 mg/kg/injection, schedule: Q04DX004 (ip), vehicle: saline with Tween-80
# [2] = dose: 75.0 mg/kg/injection, schedule: Q04DX004 (ip), vehicle: saline with Tween-80
# [3] = dose: 50.0 mg/kg/injection, schedule: Q04DX004 (ip), vehicle: Klucel (hydroxypropylcellulose) (HPC)
# [4] = dose: 100.0 mg/kg/injection, schedule: Q04DX004 (ip), vehicle: Klucel (hydroxypropylcellulose) (HPC)
# [5] = dose: 200.0 mg/kg/injection, schedule: Q04DX004 (ip), vehicle: Klucel (hydroxypropylcellulose) (HPC)
# [6] = dose: 400.0 mg/kg/injection, schedule: Q04DX004 (ip), vehicle: Klucel (hydroxypropylcellulose) (HPC)
# [7] = dose: 800.0 mg/kg/injection, schedule: Q04DX004 (ip), vehicle: Klucel (hydroxypropylcellulose) (HPC)
# [8] = dose: 25.0 mg/kg/injection, schedule: Q04DX004 (ip), vehicle: saline
# [9] = dose: 50.0 mg/kg/injection, schedule: Q04DX004 (ip), vehicle: saline
# [10] = dose: 100.0 mg/kg/injection, schedule: Q04DX004 (ip), vehicle: saline
# [11] = dose: 200.0 mg/kg/injection, schedule: Q04DX004 (ip), vehicle: saline
# [12] = dose: 25.0 mg/kg/injection, schedule: Q04DX004 (ip), vehicle: saline with Tween-80
# [13] = dose: 50.0 mg/kg/injection, schedule: Q04DX004 (ip), vehicle: saline with Tween-80
# [14] = dose: 100.0 mg/kg/injection, schedule: Q04DX004 (ip), vehicle: saline with Tween-80
# [15] = dose: 200.0 mg/kg/injection, schedule: Q04DX004 (ip), vehicle: saline with Tween-80
smiles,measurement,setting,value
Cc1nc2c(cnn2C)cc1CCc1ccccc1,T/C,"dose: 18.75 mg/kg/injection, schedule: Q04DX004 (ip), vehicle: saline with Tween-80",99 % of control
same,T/C,[1],101 % of control
same,T/C,[2],99 % of control
same,T/C,"dose: 150.0 mg/kg/injection, schedule: Q04DX004 (ip), vehicle: saline with Tween-80",99 % of control
same,T/C,"dose: 300.0 mg/kg/injection, schedule: Q04DX004 (ip), vehicle: saline with Tween-80",90 % of control
COC(=O)N1C2CCCCC2=NN(c2ccccc2)N1C(=O)OC (stereo not drawn),T/C,[3],96 % of control
same,T/C,[4],101 % of control
same,T/C,[5],99 % of control
same,T/C,[6],95 % of control
same,T/C,[7],100 % of control
CC(CNC(=O)C12CC3CC(CC(C3)C1)C2)NC(=O)C12CC3CC(CC(C3)C1)C2 (stereo not drawn),T/C,"dose: 25.0 mg/kg/injection, schedule: Q04DX004 (ip), vehicle: other",94 % of control
same,T/C,"dose: 50.0 mg/kg/injection, schedule: Q04DX004 (ip), vehicle: other",98 % of control
same,T/C,"dose: 100.0 mg/kg/injection, schedule: Q04DX004 (ip), vehicle: other",90 % of control
same,T/C,"dose: 200.0 mg/kg/injection, schedule: Q04DX004 (ip), vehicle: other",98 % of control
O=C1C[C@@H](c2ccccc2)NCCCCN(O)CCCN1,T/C,[8],102 % of control
same,T/C,[9],102 % of control
same,T/C,[10],102 % of control
Nc1ncc(C2OC(CO)C(O)C2O)c(=O)[nH]1 (stereo not drawn),T/C,[8],106 % of control
same,T/C,[9],104 % of control
same,T/C,[10],103 % of control
same,T/C,[11],96 % of control
same,T/C,"dose: 400.0 mg/kg/injection, schedule: Q04DX004 (ip), vehicle: saline",100 % of control
OC1(c2ccccc2)c2ccccc2NC2=NCCN21 (stereo not drawn),T/C,[12],95 % of control
same,T/C,[13],96 % of control
CC(/C=C/C1OC(=O)C=CC1C)=C\C(C)C/C=C/C(C)=C/C(C)C(=O)C(C)C(O)C(C)C/C(C)=C/C(=O)O (stereo not drawn),T/C,"dose: 25.0 micrograms/kg/injection, schedule: Q04DX004 (ip), vehicle: saline + alcohol",118 % of control
same,T/C,"dose: 50.0 micrograms/kg/injection, schedule: Q04DX004 (ip), vehicle: saline + alcohol",150 % of control
same,T/C,"dose: 100.0 micrograms/kg/injection, schedule: Q04DX004 (ip), vehicle: saline + alcohol",123 % of control
same,T/C,"dose: 400.0 micrograms/kg/injection, schedule: Q04DX004 (ip), vehicle: saline + alcohol",177 % of control
N#CC1C(=O)NC(=O)C(C#N)C1c1ccc(C2C(C#N)C(=O)NC(=O)C2C#N)cc1 (stereo not drawn),T/C,[3],100 % of control
same,T/C,[4],97 % of control
same,T/C,[5],100 % of control
same,T/C,[6],96 % of control
same,T/C,[7],100 % of control
CCOC(=O)NC1CCc2cc(OC)c(OC)c(OC)c2-c2ccc(OC)c(=O)cc21 (stereo not drawn),T/C,"dose: 2.5 mg/kg/injection, schedule: Q04DX004 (ip), vehicle: Klucel (hydroxypropylcellulose) (HPC)",150 % of control
same,T/C,"dose: 5.0 mg/kg/injection, schedule: Q04DX004 (ip), vehicle: Klucel (hydroxypropylcellulose) (HPC)",183 % of control
same,T/C,"dose: 10.0 mg/kg/injection, schedule: Q04DX004 (ip), vehicle: Klucel (hydroxypropylcellulose) (HPC)",176 % of control
same,T/C,"dose: 20.0 mg/kg/injection, schedule: Q04DX004 (ip), vehicle: Klucel (hydroxypropylcellulose) (HPC)",161 % of control and 178 % of control
O=c1cc(CCl)[nH]nc1CCl,T/C,"dose: 3.0 mg/kg/injection, schedule: Q04DX004 (ip), vehicle: saline with Tween-80",111 % of control
same,T/C,"dose: 6.0 mg/kg/injection, schedule: Q04DX004 (ip), vehicle: saline with Tween-80",110 % of control
same,T/C,"dose: 12.0 mg/kg/injection, schedule: Q04DX004 (ip), vehicle: saline with Tween-80",112 % of control
same,T/C,"dose: 24.0 mg/kg/injection, schedule: Q04DX004 (ip), vehicle: saline with Tween-80",120 % of control
same,T/C,"dose: 48.0 mg/kg/injection, schedule: Q04DX004 (ip), vehicle: saline with Tween-80",114 % of control
O=C(O)c1nn(-c2ccccc2-c2n[nH]c(=O)[nH]c2=O)c(=O)[nH]c1=O,T/C,[13],101 % of control
same,T/C,[14],100 % of control
same,T/C,[15],92 % of control
COc1cccc(-n2cc[n+](C)c2/C=N/O)c1,T/C,"dose: 12.5 mg/kg/injection, schedule: Q04DX004 (ip), vehicle: saline with Tween-80",108 % of control
same,T/C,[12],101 % of control
same,T/C,[13],108 % of control
same,T/C,[14],100 % of control
CN(C)CCCOc1nc2c(c(=O)n(C)c(=O)n2C)n1C (tested in a mixture with another compound),T/C,[3],169 % of control and 182 % of control
same,T/C,[4],163 % of control and 197 % of control
same,T/C,[5],208 % of control and 267 % of control
CC#CCOCC(O)CCl (stereo not drawn),T/C,[9],99 % of control
same,T/C,"dose: 50.0 mg/kg/injection, schedule: Q04DX004 (ip), vehicle: suspension in saline",102 % of control
same,T/C,[10],98 % of control
same,T/C,"dose: 100.0 mg/kg/injection, schedule: Q04DX004 (ip), vehicle: suspension in saline",102 % of control
same,T/C,[11],103 % of control
same,T/C,"dose: 200.0 mg/kg/injection, schedule: Q04DX004 (ip), vehicle: suspension in saline",102 % of control
same,T/C,"dose: 400.0 mg/kg/injection, schedule: Q04DX004 (ip), vehicle: suspension in saline",100 % of control
Nc1c(/C=C/c2cc3cc(C4=NCCN4)ccc3o2)[nH]c2cc(C3=NCCN3)ccc12,T/C,"dose: 6.25 mg/kg/injection, schedule: Q04DX004 (ip), vehicle: Klucel (hydroxypropylcellulose) (HPC)",107 % of control
same,T/C,"dose: 12.5 mg/kg/injection, schedule: Q04DX004 (ip), vehicle: Klucel (hydroxypropylcellulose) (HPC)",106 % of control
same,T/C,"dose: 25.0 mg/kg/injection, schedule: Q04DX004 (ip), vehicle: Klucel (hydroxypropylcellulose) (HPC)",104 % of control
Cc1c(-c2ccc(-c3ccccc3F)cc2)nc2ccc(F)cc2c1C(=O)O,T/C,"dose: 6.25 mg/kg/injection, schedule: Q01DX009 (ip), vehicle: water",124 % of control
same,T/C,"dose: 12.5 mg/kg/injection, schedule: Q01DX009 (ip), vehicle: water",123 % of control
same,T/C,"dose: 25.0 mg/kg/injection, schedule: Q01DX009 (ip), vehicle: water",124 % of control
NC(=O)CCC(N)C(=O)O (stereo not drawn),T/C,"dose: 3.12 mg/kg/injection, schedule: Q04DX004 (ip), vehicle: saline",100 % of control
same,T/C,"dose: 6.25 mg/kg/injection, schedule: Q04DX004 (ip), vehicle: saline",104 % of control and 105 % of control
same,T/C,"dose: 12.5 mg/kg/injection, schedule: Q04DX004 (ip), vehicle: saline",97 % of control and 99 % of control
same,T/C,[8],98 % of control and 108 % of control
same,T/C,[9],105 % of control and 111 % of control
same,T/C,[10],103 % of control and 124 % of control
CO[C@@]12[C@@H]3N[C@@H]3CN1C1=C(C(=O)C(NCCc3ccccn3)=C(C)C1=O)[C@@H]2COC(N)=O,T/C,"dose: 3.2 mg/kg/injection, schedule: Q04DX004 (ip), vehicle: saline with Tween-80",112 % of control
same,T/C,"dose: 5.4 mg/kg/injection, schedule: Q04DX004 (ip), vehicle: saline with Tween-80",122 % of control
same,T/C,[12],172 % of control and 197 % of control
same,T/C,"dose: 42.0 mg/kg/injection, schedule: Q04DX004 (ip), vehicle: saline with Tween-80",200 % of control
same,T/C,"dose: 69.0 mg/kg/injection, schedule: Q04DX004 (ip), vehicle: saline with Tween-80",280 % of control
COc1ccc(O)cc1,T/C,[12],102 % of control
same,T/C,[13],98 % of control
same,T/C,[14],105 % of control
same,T/C,[15],113 % of control
CCc1n[nH]c(CC)c1CCCCCCOc1ccc(OC)cc1Cl,T/C,[12],106 % of control
same,T/C,[1],100 % of control
same,T/C,[13],107 % of control
same,T/C,[2],91 % of control
same,T/C,[14],97 % of control
same,T/C,[15],91 % of control
Cc1[nH]c(=O)[nH]c(=O)c1C=O,T/C,[13],100 % of control
same,T/C,[14],101 % of control
same,T/C,[15],98 % of control
same,T/C,"dose: 400.0 mg/kg/injection, schedule: Q04DX004 (ip), vehicle: saline with Tween-80",96 % of control
O=C(Nc1cccc(C(F)(F)F)c1)C(Cl)=C(Cl)Cl,T/C,"dose: 37.5 mg/kg/injection, schedule: Q04DX004 (ip), vehicle: Klucel (hydroxypropylcellulose) (HPC)",95 % of control
same,T/C,"dose: 75.0 mg/kg/injection, schedule: Q04DX004 (ip), vehicle: Klucel (hydroxypropylcellulose) (HPC)",103 % of control
same,T/C,"dose: 150.0 mg/kg/injection, schedule: Q04DX004 (ip), vehicle: Klucel (hydroxypropylcellulose) (HPC)",102 % of control
same,T/C,"dose: 300.0 mg/kg/injection, schedule: Q04DX004 (ip), vehicle: Klucel (hydroxypropylcellulose) (HPC)",102 % of control
same,T/C,"dose: 600.0 mg/kg/injection, schedule: Q04DX004 (ip), vehicle: Klucel (hydroxypropylcellulose) (HPC)",87 % of control
N#CC1C(=O)NC(=S)NC1c1ccc2c(c1)CCC2 (stereo not drawn),T/C,[9],103 % of control
same,T/C,[10],97 % of control
same,T/C,[11],102 % of control
